US20230278972A1, “SUBSTITUTED HALOALKYL SULFONANILIDE HERBICIDES” (FMC Corporation, priority 2020, published 2023)

Assays:
Type in all cases: in vivo
[1] = test system: barnyardgrass (Echinochloa crus-galli); test: Test A postemergence, barnyardgrass; settings: Postemergence, 0 to 100 scale (0 no effect, 100 complete control); for Barnyardgrass plant response rating: visual injury vs untreated controls after approx. 10 days
Text: (§1) Seeds of plant species selected from barnyardgrass (Echinochloa crus-galli), kochia (Bassia scoparia), ragweed (common ragweed, Ambrosia artemisiifolia), Ryegrass, Italian (Italian ryegrass, Lolium multiflorum), Foxtail, Giant (giant foxtail, Setaria faberi), and pigweed (Amaranthus retroflexus) were planted into a blend of loam soil and sand and treated preemergence with a directed soil spray using test chemicals formulated in a non-phytotoxic solvent mixture which included a surfactant. At the same time, plants selected from these weed species and also wheat (Triticum aestivum), corn (Zea mays), blackgrass (Alopecurus myosuroides), and galium (catchweed bedstraw, Galium aparine) were planted in pots containing the same blend of loam soil and sand and treated with postemergence applications of test chemicals formulated in the same manner. Plants ranged in height from 2 to 10 cm and were in the one- to two-leaf stage for the postemergence treatment. […] A dash (-) response means no test result.

[2] = test system: wheat (Triticum aestivum); test: Test A postemergence, wheat; settings: Postemergence, 0 to 100 scale (0 no effect, 100 complete control); for Wheat plant response rating: visual injury vs untreated controls after approx. 10 days
Text: as §1

corn (Zea mays) = test: Test A postemergence, corn; settings: Postemergence, 0 to 100 scale (0 no effect, 100 complete control); for Corn plant response rating: visual injury vs untreated controls after approx. 10 days
Text: as §1

[3] = test system: Ryegrass, Italian (Italian ryegrass, Lolium multiflorum); test: Test A preemergence, Ryegrass, Italian; settings: Preemergence; for Ryegrass, Italian plant response rating: visual injury on 0 to 100 scale (0 no effect, 100 complete control), approximately 10 days; for Plant response rating, Ryegrass, Italian: 0 to 100 scale (0 no effect, 100 complete control)
Text: as §1

kochia (Bassia scoparia) [4] = test: Test A postemergence, kochia; settings: Postemergence, 0 to 100 scale (0 no effect, 100 complete control); for Kochia plant response rating: visual injury vs untreated controls after approx. 10 days
Text: as §1

kochia (Bassia scoparia) [5] = test: Test A preemergence, kochia; settings: Preemergence; for Kochia plant response rating: visual injury on 0 to 100 scale (0 no effect, 100 complete control), approximately 10 days; for Plant response rating, Kochia: 0 to 100 scale (0 no effect, 100 complete control)
Text: as §1

[6] = test system: ragweed (common ragweed, Ambrosia artemisiifolia); test: Test A preemergence, ragweed; settings: Preemergence; for Ragweed plant response rating: visual injury on 0 to 100 scale (0 no effect, 100 complete control), approximately 10 days; for Plant response rating, Ragweed: 0 to 100 scale (0 no effect, 100 complete control)
Text: as §1

[7] = test system: ragweed (common ragweed, Ambrosia artemisiifolia); test: Test A postemergence, ragweed; settings: Postemergence, 0 to 100 scale (0 no effect, 100 complete control); for Ragweed plant response rating: visual injury vs untreated controls after approx. 10 days
Text: as §1

[8] = test system: galium (catchweed bedstraw, Galium aparine); test: Test A postemergence, galium; settings: Postemergence, 0 to 100 scale (0 no effect, 100 complete control); for Galium plant response rating: visual injury vs untreated controls after approx. 10 days
Text: as §1

[9] = test system: pigweed (Amaranthus retroflexus); test: Test A postemergence, pigweed; settings: Postemergence, 0 to 100 scale (0 no effect, 100 complete control); for Pigweed plant response rating: visual injury vs untreated controls after approx. 10 days
Text: as §1

[10] = test system: Foxtail, Giant (giant foxtail, Setaria faberi); test: Test A postemergence, Foxtail, Giant; settings: Postemergence, 0 to 100 scale (0 no effect, 100 complete control); for Foxtail, Giant plant response rating: visual injury vs untreated controls after approx. 10 days
Text: as §1

[11] = test system: Foxtail, Giant (giant foxtail, Setaria faberi); test: Test A preemergence, Foxtail, Giant; settings: Preemergence; for Foxtail, Giant plant response rating: visual injury on 0 to 100 scale (0 no effect, 100 complete control), approximately 10 days; for Plant response rating, Foxtail, Giant: 0 to 100 scale (0 no effect, 100 complete control)
Text: as §1

[12] = test system: barnyardgrass (Echinochloa crus-galli); test: Test A preemergence, barnyardgrass; settings: Preemergence; for Barnyardgrass plant response rating: visual injury on 0 to 100 scale (0 no effect, 100 complete control), approximately 10 days; for Plant response rating, Barnyardgrass: 0 to 100 scale (0 no effect, 100 complete control)
Text: as §1

[13] = test system: blackgrass (Alopecurus myosuroides); test: Test A postemergence, blackgrass; settings: Postemergence, 0 to 100 scale (0 no effect, 100 complete control); for Blackgrass plant response rating: visual injury vs untreated controls after approx. 10 days
Text: as §1

[14] = test system: Ryegrass, Italian (Italian ryegrass, Lolium multiflorum); test: Test A postemergence, Ryegrass, Italian; settings: Postemergence, 0 to 100 scale (0 no effect, 100 complete control); for Ryegrass, Italian plant response rating: visual injury vs untreated controls after approx. 10 days
Text: as §1

[15] = 500 g ai/ha, visual injury approx. 10 days
[16] = 125 g ai/ha, visual injury, approx. 10 days

Structure (SMILES)	Plant response rating, Barnyardgrass ([1]; 125 g ai/ha)	Barnyardgrass plant response rating ([1]; 500 g ai/ha)	Plant response rating, Wheat ([2]; 125 g ai/ha)	Wheat plant response rating ([2]; 500 g ai/ha)	Plant response rating, Corn (corn (Zea mays); 125 g ai/ha)	Corn plant response rating (corn (Zea mays); 500 g ai/ha)	Ryegrass, Italian plant response rating ([3]; 125 g ai/ha)	Plant response rating, Ryegrass, Italian ([3]; 500 g ai/ha)	Plant response rating, Kochia (kochia (Bassia scoparia) [4]; 125 g ai/ha)	Kochia plant response rating (kochia (Bassia scoparia) [4]; 500 g ai/ha)	Kochia plant response rating (kochia (Bassia scoparia) [5]; 125 g ai/ha)	Plant response rating, Kochia (kochia (Bassia scoparia) [5]; 500 g ai/ha)	Ragweed plant response rating ([6]; 125 g ai/ha)	Plant response rating, Ragweed ([6]; 500 g ai/ha)	Plant response rating, Ragweed ([7]; 125 g ai/ha)	Plant response rating, Galium ([8]; 125 g ai/ha)	Plant response rating, Pigweed ([9]; 125 g ai/ha)	Plant response rating, Foxtail, Giant ([10]; 125 g ai/ha)	Plant response rating, Blackgrass ([13]; 125 g ai/ha)	Plant response rating, Ryegrass, Italian ([14]; 125 g ai/ha)	further results
Cc1cc(C)c(C2=NOC3CCCC23)cc1NS(=O)(=O)C(F)(F)F (stereo not drawn) [Compound 166]	90	90	70	70	10	50	70	100	50	80	90	100	20	80	40	80	40	50	10	90	Ragweed plant response rating ([7]; 500 g ai/ha): 80; Galium plant response rating ([8]; 500 g ai/ha): 90; Pigweed plant response rating ([9]; 500 g ai/ha): 90; Foxtail, Giant plant response rating ([10]; 500 g ai/ha): 60; Foxtail, Giant plant response rating ([11]; 125 g ai/ha): 80; Plant response rating, Foxtail, Giant ([11]; 500 g ai/ha): 100; Barnyardgrass plant response rating ([12]; 125 g ai/ha): 100; Plant response rating, Barnyardgrass ([12]; 500 g ai/ha): 100; Blackgrass plant response rating ([13]; 500 g ai/ha): 20; Ryegrass, Italian plant response rating ([14]; 500 g ai/ha): 90
Cc1cc(C)c(C2=NOC3(CCC(F)(F)CC3)C2)cc1NS(=O)(=O)C(F)(F)F [Compound 172]	60	80	30	70	40	70	100	100	40	80	60	90	40	90	60	90	70	20	0	60	Ragweed plant response rating ([7]; 500 g ai/ha): 80; Galium plant response rating ([8]; 500 g ai/ha): 90; Pigweed plant response rating ([9]; 500 g ai/ha): 90; Foxtail, Giant plant response rating ([10]; 500 g ai/ha): 80; Foxtail, Giant plant response rating ([11]; 125 g ai/ha): 90; Plant response rating, Foxtail, Giant ([11]; 500 g ai/ha): 100; Barnyardgrass plant response rating ([12]; 125 g ai/ha): 90; Plant response rating, Barnyardgrass ([12]; 500 g ai/ha): 90; Blackgrass plant response rating ([13]; 500 g ai/ha): 40; Ryegrass, Italian plant response rating ([14]; 500 g ai/ha): 80
Cc1cc(C)c(C2=NOC3(CCSCC3)C2)cc1NS(=O)(=O)C(F)(F)F [Compound 176]	80	90	60	60	70	80	90	100	40	50	70	90	40	90	60	90	60	90	40	60	Ragweed plant response rating ([7]; 500 g ai/ha): 90; Galium plant response rating ([8]; 500 g ai/ha): 90; Pigweed plant response rating ([9]; 500 g ai/ha): 90; Foxtail, Giant plant response rating ([10]; 500 g ai/ha): 90; Foxtail, Giant plant response rating ([11]; 125 g ai/ha): 100; Plant response rating, Foxtail, Giant ([11]; 500 g ai/ha): 100; Barnyardgrass plant response rating ([12]; 125 g ai/ha): 70; Plant response rating, Barnyardgrass ([12]; 500 g ai/ha): 90; Blackgrass plant response rating ([13]; 500 g ai/ha): 70; Ryegrass, Italian plant response rating ([14]; 500 g ai/ha): 80
C#CCN(C)C(=O)c1cc(NS(=O)(=O)C(F)(F)F)c(C)c(F)c1C [Compound 179]	90	90	0	60	20	80	100	100	60	70	90	90	90	90	90	90	80	70	20	40	Ragweed plant response rating ([7]; 500 g ai/ha): 90; Galium plant response rating ([8]; 500 g ai/ha): 90; Pigweed plant response rating ([9]; 500 g ai/ha): 90; Foxtail, Giant plant response rating ([10]; 500 g ai/ha): 90; Foxtail, Giant plant response rating ([11]; 125 g ai/ha): 80; Plant response rating, Foxtail, Giant ([11]; 500 g ai/ha): 100; Barnyardgrass plant response rating ([12]; 125 g ai/ha): 90; Plant response rating, Barnyardgrass ([12]; 500 g ai/ha): 90; Blackgrass plant response rating ([13]; 500 g ai/ha): 40; Ryegrass, Italian plant response rating ([14]; 500 g ai/ha): 80
Cc1cc(Cl)c(NS(=O)(=O)C(F)(F)F)cc1C(=O)N1CCOCC1C (stereo not drawn) [Compound 245]	90		60		20				40						90	90	80	50	40	70	Plant response rating, Barnyardgrass [1, 15]: 90; Plant response rating, Wheat [2, 15]: 60; Plant response rating, Corn (corn (Zea mays); [15]): 60; Plant response rating, Ryegrass, Italian [3, 16]: 80; Ryegrass, Italian plant response rating ([3]; 500 g ai/ha): 100; Plant response rating, Kochia (kochia (Bassia scoparia) [4]; [15]): 60; Plant response rating, Kochia (kochia (Bassia scoparia) [5]; [16]): 80; Kochia plant response rating (kochia (Bassia scoparia) [5]; 500 g ai/ha): 80; Plant response rating, Ragweed [6, 16]: 90; Ragweed plant response rating ([6]; 500 g ai/ha): 90; Plant response rating, Ragweed [7, 15]: 90; Plant response rating, Galium [8, 15]: 90; Plant response rating, Pigweed [9, 15]: 90; Plant response rating, Foxtail, Giant [10, 15]: 90; Plant response rating, Foxtail, Giant [11, 16]: 100; Foxtail, Giant plant response rating ([11]; 500 g ai/ha): 100; Plant response rating, Barnyardgrass [12, 16]: 90; Barnyardgrass plant response rating ([12]; 500 g ai/ha): 100; Plant response rating, Blackgrass [13, 15]: 60; Plant response rating, Ryegrass, Italian [14, 15]: 80
